Reference: US20230339835A1, “2,3,5-TRIMETHYL-6-NONYLCYCLOHEXA-2,5-DIENE-1,4-DIONE FOR SUPPRESSING AND TREATING ALPHA-SYNUCLEINOPATHIES, TAUOPATHIES, AND OTHER DISORDERS” (PTC THERAPEUTICS, INC., priority 2018, published 2023)

Assays:
[1] = biological target: T1, pre-formed fibrils (PFFs) of human wild-type Tau K18 fragment (Homo sapiens, UniProt P10636); assay: Cell-free Tau K18 WT pre-formed fibril disaggregation assay (Thioflavin T); format: biochemical; settings: 10 μM Tau PFFs, 30 μM compound, 94 hr, vs vehicle (Dunnett's test)
T1 construct: human recombinant Tau K18 WT fragment were generated by incubating the Tau K18 monomer (Bio-Techne®); purchased Bio-Techne
Method: Summary: Compounds 2,3,5-trimethyl-6-nonylcyclohexa-2,5-diene-1,4-dione (C9), 2,3,5-trimethyl-6-octylcyclohexa-2,5-diene-1,4-dione (C8), and 2,3,5-trimethyl-6-heptylcyclohexa-2,5-diene-1,4-dione (C7) were tested for their ability to disaggregate pre-formed fibrils (PFFs) of human wild-type Tau K18 fragment, as measured by the decrease in fluorescence intensity of the aggregate-binding fluorophore, Thioflavin T, over time.
Experimental Methods: Pre-formed fibrils (PFFs) of the human recombinant Tau K18 WT fragment were generated by incubating the Tau K18 monomer (Bio-Techne®) with sodium heparin in a 1:1 ratio in presence of excess (50×) tris(2-carboxyethyl)phosphine (TCEP) as the reducing agent in Dulbecco's phosphate-buffered saline (DPBS) buffer (pH 7.4). The mixture was incubated for 4 days at 37° C. without agitation to yield PFFs in 100 μM final concentration.
Cell-free Tau disaggregation assays were set up with 10 μM of Tau PFFs in the presence of 30 μM of compound (from 10 mM stocks in DMSO) or in 0.3% (v/v) DMSO as vehicle. All solutions were prepared in DPBS buffer (pH 7.4) with 0.03% (v/v) NaN3 and 5 μM Thioflavin T (ThT), prepared as a master mix before addition of the protein or compounds. A protein master mix was first prepared the day before the assay to pre-equilibrate the Tau PFFs at 10 μM at ambient temperature and atmosphere. The next day, the pre-mixed protein solution was separated into 4 tubes (1 per condition). […]
Tau PFFs solution+/−compound and background samples were then loaded into wells of an optically transparent 96-well plate with black walls, which was sealed with a LightCycler® 480 seal (Roche Life Science), incubated at 37° C. for 15 minutes to equilibrate and the data collection was initiated. A Tecan M1000 spectrometer was used to collect data points on ThT fluorescence (ex/em 450/490 nm) every 30 minutes without agitation.
Data Analysis and Results: The maximum fluorescence intensity unit (FIU) value of the vehicle-treated Tau samples was set to 100%, to which all other FIU values were normalized relatively. […]

[2] = test system: N27 rat dopaminergic cells overexpressing a truncated human αSynuclein-GFP fusion protein; assay: Inhibition of RSL3-induced αSynuclein aggregation in N27 cells; format: cell-based; settings: 60 nM RSL3, 70 nM compound, 24 hr; for inhibition of RSL3-induced αSynuclein aggregation: vs RSL3 only (Dunnett's test)
Method: N27 rat dopaminergic cells (purchased from EMD Millipore, SCC048) were transformed to stably overexpress truncated α-Synuclein fused with green fluorescent protein (GFP) with a plasmid construct obtained from Origene (RG221446). Cells were maintained in selection media which consisted of RPMI 1640 media supplemented with 10% (v/v) fetal bovine serum (Millipore, ES-009-B), 1% (v/v) Pencillin-Streptomycin (Gibco, 15140-122), 1% (v/v) L-Glutamine (Gibco, 25030-081) and 500 μg/mL of G418 (Gibco, 10131-027).
N27 rat dopaminergic cells overexpressing a truncated (112 amino acid) human αSynuclein-GFP fusion protein, as described above, were maintained in normal culture conditions as described above. The day before the experiment, cells were plated in 96 well optical bottom, black walled plates at 3,000 cells/well, and maintained at 37° C. for 24 hr. The experiment was initiated by co-treating cells with (1S,3R)-methyl 2-(2-chloroacetyl)-1-(4-(methoxycarbonyl)phenyl)-2,3,4,9-tetrahydro-1H-pyrido[3,4-b]indole-3-carboxylate (1S,3R-RSL3, described by Yang et al., Cell 156:317-331 (2014)) (60 nM) and 70 nM compounds (2,3,5-trimethyl-6-nonylcyclohexa-2,5-diene-1,4-dione (C9), 2,3,5-trimethyl-6-octylcyclohexa-2,5-diene-1,4-dione (C8), or 2,3,5-trimethyl-6-heptylcyclohexa-2,5-diene-1,4-dione (C7)) using a D300e compound printer (Tecan), and placed back in the incubator at 37° C. for 24 hr. Cells were fixed with 4% paraformaldehyde for 15 minutes at room temperature, washed 3 times with Dulbecco's phosphate-buffered saline (DPBS) buffer, and then incubated at room temperature for 48 hr with 1% Triton-X 100 solution (in DPBS) to enable selective labeling of aggregated αSynuclein. Cells were then washed and standard immunocytochemistry (ICC) methods were employed to label total αSynuclein (mouse anti-αSynuclein, 1:250, BD Biosciences). Cells were incubated with primary antibody overnight at 4° C. and then washed with DPBS 3 times the following day. Cells were then incubated at room temperature with a fluorescently conjugated secondary antibody (goat anti-mouse Alexa 647, Invitrogen) for 2 hr at room temperature. 10 nM Hoechst was also added to label nuclei, and cells were imaged on a high-content imaging platform (ThermoFisher, HSC Cellomics Arrayscan) to quantify total aggregated αSynuclein (see FIG. 3A).
Statistical analysis of samples was performed via ordinary one-way ANOVA analysis with Dunnett's multiple comparisons test, comparing RSL3 only-treated vs. RSL3 plus compound-treated cells.

T1 sequence (P10636 561-685 limits assumed): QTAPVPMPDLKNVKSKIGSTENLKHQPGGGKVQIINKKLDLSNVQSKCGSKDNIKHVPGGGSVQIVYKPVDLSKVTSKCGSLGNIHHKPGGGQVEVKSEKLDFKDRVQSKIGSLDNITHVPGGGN

reduction in Tau fibril content [1] | Structure (SMILES) | inhibition of RSL3-induced αSynuclein aggregation [2] | level of aggregation inhibition over C8 [2]
did not have a significant reduction | CCCCCCCCC1=C(C)C(=O)C(C)=C(C)C1=O [Compound C8, 2,3,5-trimethyl-6-octylcyclohexa-2,5-diene-1,4-dione, reference compound] | significant inhibition | –
significant reduction | CCCCCCCCCC1=C(C)C(=O)C(C)=C(C)C1=O [Compound C9, 2,3,5-trimethyl-6-nonylcyclohexa-2,5-diene-1,4-dione] | significant inhibition | approximately 5.45 fold
